Source: ChEMBL document CHEMBL1147725, “Identification and biological characterization of 6-aryl-7-isopropylquinazolinones as novel TRPV1 antagonists that are effective in models of chronic pain” (J Med Chem, 2006)
In brackets after ≈: the same amount, converted by molar mass.

Assays:
[1] = biological target: T1, Transient receptor potential cation channel subfamily V member 1 (Homo sapiens, UniProt Q8NER1); experiment: Inhibition of calcium influx evoked by capsaicin in human TRPV1 expressing cells by fluorescence assay; format: functional
T1 sequence (Q8NER1 whole entry): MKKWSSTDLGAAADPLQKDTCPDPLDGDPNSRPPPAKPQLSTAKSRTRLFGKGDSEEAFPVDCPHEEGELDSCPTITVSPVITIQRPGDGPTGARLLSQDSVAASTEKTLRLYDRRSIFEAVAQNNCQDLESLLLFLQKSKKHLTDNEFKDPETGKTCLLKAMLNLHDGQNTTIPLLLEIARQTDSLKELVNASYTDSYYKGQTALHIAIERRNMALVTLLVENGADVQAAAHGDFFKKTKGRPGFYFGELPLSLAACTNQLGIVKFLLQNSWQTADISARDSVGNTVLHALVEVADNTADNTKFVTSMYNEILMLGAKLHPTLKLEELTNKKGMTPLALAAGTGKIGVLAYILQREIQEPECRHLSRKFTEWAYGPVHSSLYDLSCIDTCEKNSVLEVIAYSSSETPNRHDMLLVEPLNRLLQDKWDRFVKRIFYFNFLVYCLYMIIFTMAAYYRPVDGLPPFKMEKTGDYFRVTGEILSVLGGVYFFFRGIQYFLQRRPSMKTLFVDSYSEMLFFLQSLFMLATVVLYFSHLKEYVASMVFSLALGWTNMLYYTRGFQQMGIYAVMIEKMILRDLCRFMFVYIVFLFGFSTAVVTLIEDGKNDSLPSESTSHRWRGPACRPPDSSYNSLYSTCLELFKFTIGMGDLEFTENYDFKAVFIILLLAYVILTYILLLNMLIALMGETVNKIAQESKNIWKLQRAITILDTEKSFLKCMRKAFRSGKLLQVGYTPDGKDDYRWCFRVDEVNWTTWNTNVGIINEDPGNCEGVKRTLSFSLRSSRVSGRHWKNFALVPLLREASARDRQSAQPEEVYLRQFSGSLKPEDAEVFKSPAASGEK

[2] = Aqueous solubility at pH 6.8 and 25 degC; format: physicochemical; conditions: aqueous medium
[3] = biological target: T1, Transient receptor potential cation channel subfamily V member 1; experiment: Inhibition of low pH activation of human TRPV1; format: functional
[4] = Half life in rat at 3 mg/kg, po; format: ADME, organism-based; parameters: dose 3 mg/kg, route oral; conditions: Wistar Han, in vivo

Row | IC50 [1] [nM] | solubility [2] [µg/mL] | IC50 [3] [nM] | half-life [4] [h] | Compound
1 | 557 |  |  |  | Cc1nc(O)c2cc(-c3ccc(Cl)c(OCCO)c3)c(C(C)C)cc2n1
2 | 334 |  |  |  | Oc1cc2c(cc1O)CN(C(=S)NCCc1ccc(Cl)cc1)CCC2 [CAPSAZEPINE]
3 |  | 0.15 (≈ 0.434 µM) | 18 | 7.5 | CC(C)(C)c1nc2[nH]c(=S)[nH]c(=O)c2cc1-c1ccc(Cl)cc1
